According to patent US9253983B2, “Triazole compound and use thereof” (KUREHA CORPORATION, priority 2011, dated 2016):

Key:
[1] = test system: wheat; experiment: Growth inhibition (adverse effects) of seed treatment on wheat seeds; format: in vivo; conditions: wheat, 20 days after sowing
How it was run: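 Wheat seeds were treated with compound in DMSO at 2 g to 200 g ai/100 kg seeds, sown 8 per pot and kept in a greenhouse with bottom watering. Growth was scored 20 days after sowing as a growth inhibition index, lower meaning less adverse effect.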

[2] = test system: wheat; experiment: Necrosis (adverse effects) of seed treatment on wheat seeds; format: in vivo; conditions: 20 days after sowing
[3] = test system: Phaeosphaeria nodorum; experiment: Test 1 for antifungal effect, plate medium: P.n; format: cell-based; conditions: PDA plate medium
How it was run: (§1)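 Mycelial plugs, 4 mm across, were placed on PDA plates containing compound added from a DMSO solution. Cultures grew at their optimum temperatures for 1 to 7 days, and colony diameters were compared with untreated plates to give percent growth inhibition.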

[4] = test system: Microdochium nivale; experiment: Test 1 for antifungal effect, plate medium: M.n; format: cell-based; conditions: PDA plate medium
How it was run: as §1

[5] = test system: Gibberella fujikuroi; experiment: Test 1 for antifungal effect, plate medium: G.f; format: cell-based; conditions: PDA plate medium
How it was run: as §1

[6] = test system: Rhizopus oryzae; experiment: Test 1 for antifungal effect, plate medium: R.o; format: cell-based; conditions: PDA plate medium
How it was run: as §1

[7] = test system: Sclerotinia sclerotiorum; experiment: Test 1 for antifungal effect, plate medium: S.s; format: cell-based; conditions: PDA plate medium
How it was run: as §1

[8] = test system: Botrytis cinerea; experiment: Test 1 for antifungal effect, plate medium: B.c; format: cell-based; conditions: PDA plate medium
How it was run: as §1

[9] = test system: Glomerella cingurata; experiment: Test 1 for antifungal effect, plate medium: G.c; format: cell-based; conditions: PDA plate medium
How it was run: as §1

[10] = test system: Ustilago nuda; experiment: Test 2 for antifungal effect, plate medium: U.n; format: cell-based; conditions: PDA plate medium
How it was run: (§2)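 Compound in DMSO was mixed into PDA medium at about 60° C to make plates at a set concentration. These were inoculated with 4 mm mycelial plugs and grown 1–7 days at each pathogen's optimum temperature. Colony diameter was compared with compound-free plates to give growth inhibition, rated on a 1–5 scale.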

[11] = test system: Penicillium italicum; experiment: Test 2 for antifungal effect, plate medium: P.i; format: cell-based; conditions: PDA plate medium
How it was run: as §2

[12] = test system: Septoria tritici; experiment: Test 2 for antifungal effect, plate medium: S.t; format: cell-based; conditions: PDA plate medium
How it was run: as §2

[13] = treatment amount 2 g ai/100 kg seeds
[14] = treatment amount 20 g ai/100 kg seeds
[15] = treatment amount 200 g ai/100 kg seeds

CC1(CCl)CCC(Cc2ccc(Cl)cc2)C1(O)Cn1cncn1 (single isomer, unassigned) [Compound (1-1a), (1,2-cis, 1,5-cis)-5-(4-chlorobenzyl)-2-chloromethyl-2-methyl-1-(1H-1,2,4-triazole-1-ylmethyl)cyclopentanol]
Growth inhibition index [1, 13]: 0 (50% or more)
Growth inhibition index [1, 14]: 0 (50% or more)
Growth inhibition index [1, 15]: 0 (50% or more)
Necrosis index [2, 13]: 0 (Less than 1%)
Necrosis index [2, 14]: 0 (Less than 1%)
Necrosis index [2, 15]: 0 (Less than 1%)
Antifungal index (mycelial growth inhibition rate) ([3]; 0.16 mg/L): 2 (Less than 70% but not less than 60%)
Antifungal index (mycelial growth inhibition rate) ([3]; 0.31 mg/L): 3 (Less than 80% but not less than 70%)
Antifungal index (mycelial growth inhibition rate) ([3]; 0.63 mg/L): 5 (90% or greater)
Antifungal index (mycelial growth inhibition rate) ([3]; 1.25 mg/L): 5 (90% or greater)
Antifungal index (mycelial growth inhibition rate) ([3]; 2.50 mg/L): 5 (90% or greater)
Antifungal index (mycelial growth inhibition rate) ([4]; 0.16 mg/L): 1 (Less than 60%)
Antifungal index (mycelial growth inhibition rate) ([4]; 0.31 mg/L): 3 (Less than 80% but not less than 70%)
Antifungal index (mycelial growth inhibition rate) ([4]; 0.63 mg/L): 3 (Less than 80% but not less than 70%)
Antifungal index (mycelial growth inhibition rate) ([4]; 1.25 mg/L): 4 (Less than 90% but not less than 80%)
Antifungal index (mycelial growth inhibition rate) ([4]; 2.50 mg/L): 5 (90% or greater)
Antifungal index (mycelial growth inhibition rate) ([5]; 0.16 mg/L): 5 (90% or greater)
Antifungal index (mycelial growth inhibition rate) ([5]; 0.31 mg/L): 5 (90% or greater)
Antifungal index (mycelial growth inhibition rate) ([5]; 0.63 mg/L): 5 (90% or greater)
Antifungal index (mycelial growth inhibition rate) ([5]; 1.25 mg/L): 5 (90% or greater)
Antifungal index (mycelial growth inhibition rate) ([5]; 2.50 mg/L): 5 (90% or greater)
Antifungal index (mycelial growth inhibition rate) ([6]; 0.16 mg/L): 3 (Less than 80% but not less than 70%)
Antifungal index (mycelial growth inhibition rate) ([6]; 0.31 mg/L): 4 (Less than 90% but not less than 80%)
Antifungal index (mycelial growth inhibition rate) ([6]; 0.63 mg/L): 5 (90% or greater)
Antifungal index (mycelial growth inhibition rate) ([6]; 1.25 mg/L): 5 (90% or greater)
Antifungal index (mycelial growth inhibition rate) ([6]; 2.50 mg/L): 5 (90% or greater)
Antifungal index (mycelial growth inhibition rate) ([7]; 0.16 mg/L): 5 (90% or greater)
Antifungal index (mycelial growth inhibition rate) ([7]; 0.31 mg/L): 5 (90% or greater)
Antifungal index (mycelial growth inhibition rate) ([7]; 0.63 mg/L): 5 (90% or greater)
Antifungal index (mycelial growth inhibition rate) ([7]; 1.25 mg/L): 5 (90% or greater)
Antifungal index (mycelial growth inhibition rate) ([7]; 2.50 mg/L): 5 (90% or greater)
Antifungal index (mycelial growth inhibition rate) ([8]; 0.16 mg/L): 3 (Less than 80% but not less than 70%)
Antifungal index (mycelial growth inhibition rate) ([8]; 0.31 mg/L): 5 (90% or greater)
Antifungal index (mycelial growth inhibition rate) ([8]; 0.63 mg/L): 5 (90% or greater)
Antifungal index (mycelial growth inhibition rate) ([8]; 1.25 mg/L): 5 (90% or greater)
Antifungal index (mycelial growth inhibition rate) ([8]; 2.50 mg/L): 5 (90% or greater)
Antifungal index (mycelial growth inhibition rate) ([9]; 0.16 mg/L): 5 (90% or greater)
Antifungal index (mycelial growth inhibition rate) ([9]; 0.31 mg/L): 5 (90% or greater)
Antifungal index (mycelial growth inhibition rate) ([9]; 0.63 mg/L): 5 (90% or greater)
Antifungal index (mycelial growth inhibition rate) ([9]; 1.25 mg/L): 5 (90% or greater)
Antifungal index (mycelial growth inhibition rate) ([9]; 2.50 mg/L): 5 (90% or greater)
Antifungal index (mycelial growth inhibition rate) ([10]; 0.04 mg/L): 1 (Less than 60%)
Antifungal index (mycelial growth inhibition rate) ([10]; 0.08 mg/L): 1 (Less than 60%)
Antifungal index (mycelial growth inhibition rate) ([10]; 0.16 mg/L): 1 (Less than 60%)
Antifungal index (mycelial growth inhibition rate) ([10]; 0.31 mg/L): 2 (Less than 70% but not less than 60%)
Antifungal index (mycelial growth inhibition rate) ([10]; 0.63 mg/L): 3 (Less than 80% but not less than 70%)
Antifungal index (mycelial growth inhibition rate) ([10]; 1.25 mg/L): 4 (Less than 90% but not less than 80%)
Antifungal index (mycelial growth inhibition rate) ([11]; 0.04 mg/L): 1 (Less than 60%)
Antifungal index (mycelial growth inhibition rate) ([11]; 0.08 mg/L): 4 (Less than 90% but not less than 80%)
Antifungal index (mycelial growth inhibition rate) ([11]; 0.16 mg/L): 4 (Less than 90% but not less than 80%)
Antifungal index (mycelial growth inhibition rate) ([11]; 0.31 mg/L): 5 (90% or greater)
Antifungal index (mycelial growth inhibition rate) ([11]; 0.63 mg/L): 5 (90% or greater)
Antifungal index (mycelial growth inhibition rate) ([11]; 1.25 mg/L): 5 (90% or greater)
Antifungal index (mycelial growth inhibition rate) ([12]; 0.04 mg/L): 1 (Less than 60%)
Antifungal index (mycelial growth inhibition rate) ([12]; 0.08 mg/L): 1 (Less than 60%)
Antifungal index (mycelial growth inhibition rate) ([12]; 0.16 mg/L): 1 (Less than 60%)
Antifungal index (mycelial growth inhibition rate) ([12]; 0.31 mg/L): 1 (Less than 60%)
Antifungal index (mycelial growth inhibition rate) ([12]; 0.63 mg/L): 1 (Less than 60%)
Antifungal index (mycelial growth inhibition rate) ([12]; 1.25 mg/L): 1 (Less than 60%)
